Values quoted from earlier work in patent publication US20060035317A1, “Effect of treatment with 4,5-dihydroxy-2-cyclopenten-1-one (dhcp) on gene expression and quorum-sensing in bacteria” (priority 2002, published 2006).
Like-named read-outs stand apart in the source and are kept apart here.

Tested on: E. coli (gene expression)
Conditions: Wang et al., 2001, cited from earlier work

## c1ccc2[nH]ccc2c1 [indole]
Gene cysK
  Induction of gene by indole: induces
Gene gabT
  Induction of gene by indole: not
